# Biological target: T1, human glycogen phosphorylase a (Homo sapiens, UniProt P06737)
# T1 sequence (P06737 1-847): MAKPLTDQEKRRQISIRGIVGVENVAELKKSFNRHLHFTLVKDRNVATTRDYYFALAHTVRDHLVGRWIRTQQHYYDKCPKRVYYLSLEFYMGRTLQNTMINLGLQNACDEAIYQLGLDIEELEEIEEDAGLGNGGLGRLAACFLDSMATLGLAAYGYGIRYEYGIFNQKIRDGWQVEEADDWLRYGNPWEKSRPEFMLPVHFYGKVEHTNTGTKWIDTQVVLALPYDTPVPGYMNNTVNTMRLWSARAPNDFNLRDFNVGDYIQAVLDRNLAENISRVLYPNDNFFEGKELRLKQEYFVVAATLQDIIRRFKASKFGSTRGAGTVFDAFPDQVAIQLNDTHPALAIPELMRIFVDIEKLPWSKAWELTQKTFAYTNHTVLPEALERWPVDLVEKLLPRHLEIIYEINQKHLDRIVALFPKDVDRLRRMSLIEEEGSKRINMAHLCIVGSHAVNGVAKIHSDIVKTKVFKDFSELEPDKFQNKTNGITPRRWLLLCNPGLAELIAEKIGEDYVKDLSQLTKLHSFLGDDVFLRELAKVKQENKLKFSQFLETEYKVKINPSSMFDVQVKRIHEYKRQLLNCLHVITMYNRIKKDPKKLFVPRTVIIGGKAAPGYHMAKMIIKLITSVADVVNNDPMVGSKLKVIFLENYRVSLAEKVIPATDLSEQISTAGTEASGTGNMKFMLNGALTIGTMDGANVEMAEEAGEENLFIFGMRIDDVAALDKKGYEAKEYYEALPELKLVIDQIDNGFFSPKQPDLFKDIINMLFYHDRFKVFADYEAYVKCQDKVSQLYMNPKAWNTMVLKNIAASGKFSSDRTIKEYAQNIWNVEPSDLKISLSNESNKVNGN
# Assay: Glycogen phosphorylase a activity assay
# Assay type: biochemical
# Conditions: 10 μM test substance; reverse direction (glycogen synthesis from glucose 1-phosphate, liberated inorganic phosphate)
# Procedure: Glycogen Phosphorylase a Activity Assay
# The effect of compounds on the activity of the active form of glycogen phosphorylase (GPa) was measured in the reverse direction by following the synthesis of glycogen from glucose 1-phosphate by determining the liberation of inorganic phosphate. All the reactions were carried out as duplicate determinations in microtiter plates with 96 wells (Half Area Plates, Costar No 3696), measuring the change in absorption owing to the formation of the reaction product at the wavelength specified hereinafter in a Multiskan Ascent Elisa Reader (Lab Systems, Finland).
# In order to measure the GPa enzymic activity in the reverse direction, the general method of Engers et al. (Engers H D, Shechosky S, Madsen N B, Can J Biochem 1970 July; 48(7):746-754) was used to measure the conversion of glucose 1-phosphate into glycogen and inorganic phosphate, with the following modifications: human glycogen phosphorylase a (for example with 0.76 mg of protein/ml (Aventis Pharma Deutschland GmbH), dissolved in buffer solution E (25 mM β-glycerophosphate, pH 7.0, 1 mM EDTA and 1 mM dithiothreitol) was diluted with buffer T (50 mM Hepes, pH 7.0, 100 mM KCl, 2.5 mM EDTA, 2.5 mM MgCl2.6H2O) and addition of 5 mg/ml glycogen to a concentration of 10 μg of protein/ml. […] After incubation at 45° C. for 60 minutes, the absorption at 820 nm was measured. […]
substance,measurement,value
"1-Ethyl-6-(4-ethylphenylamino)-7-methyl-4-oxo-1,4-dihydro-[1,8]naphthyridine-3-carboxylate [Example 1]",% inhibition at 10 μM,14%
